Measured values taken from patent publication US10774064B2 (Cadent Therapeutics, Inc., priority 2016, dated 2020).

Target: T1, small-conductance Ca2+-activated K+ channels (SK channels, subtype 2) (Homo sapiens, UniProt Q9H2S1)
T1 construct: expressed in transfected cells; host or cells: HEK293
Test: whole-cell patch-clamp of ionic current through SK2 channels in HEK293 cells (SC100)
Format: cell-based
Settings: whole-cell patch-clamp, HEK293 cells expressing SK2 channels; concentration that increases the basal current by 100%
Procedure, shortened: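 SC100, the concentration doubling basal current (a 100% increase), was taken from SK2 currents recorded by whole-cell patch-clamp in SK2-expressing HEK293 cells.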

With `Cc1ccc(OCc2cc(NC3CCC(F)(F)CC3)nc(-n3ccc(C)n3)c2)nn1` [NSSy5828, N-(4,4-difluorocyclohexyl)-6-(3-methyl-1H-pyrazol-1-yl)-4-(((6-methylpyridazin-3-yl)oxy)methyl)pyridin-2-amine] the “SC100 (μM)” value was “+++ (+++ means <200 nM)”.
For `Cc1ccn(-c2cc(CF)cc(NC3CCC(F)(F)CC3)n2)n1` [NSSy5829, N-(4,4-difluorocyclohexyl)-4-(fluoromethyl)-6-(3-methyl-1H-pyrazol-1-yl)pyridin-2-amine], the “SC100 (μM)” value was “++ (++ means 200 nM-1000 nM)”.
With `C/C(=N\O)Nc1cc(NC2CCC(F)(F)CC2)nc(-c2nc(C)no2)n1` [NSSy5830, (E)-N-(6-((4,4-difluorocyclohexyl)amino)-2-(3-methyl-1,2,4-oxadiazol-5-yl)pyrimidin-4-yl)-N′-hydroxyacetimidamide] the “SC100 (μM)” value was “+ (+ means >1 uM)”.
For `Cc1nsc(-c2nc(NC3CCC(F)(F)CC3)cc(N3CCOCC3)n2)n1` [NSSy5832], the “SC100 (μM)” value was “+ (+ means >1 uM)”.
For `Cc1noc(-c2nc(NC3CCC(F)(F)CC3)cc(N3CCOCC3)n2)n1` [NSSy5835, N-(4,4-difluorocyclohexyl)-2-(3-methyl-1,2,4-oxadiazol-5-yl)-6-morpholinopyrimidin-4-amine], the “SC100 (μM)” value was “+ (+ means >1 uM)”.
In the case of `Cc1csc(-c2cc(N3CCN4C(=O)OC[C@@H]4C3)cc(NC3CCC(F)(F)CC3)n2)n1` [NSSy5837], the “SC100 (μM)” value is reported as “+++ (+++ means <200 nM)”.
In the case of `Cc1csc(-c2cc(N3CCN4C(=O)OC[C@H]4C3)cc(NC3CCC(F)(F)CC3)n2)n1` [NSSy5838], the “SC100 (μM)” value is reported as “+++ (+++ means <200 nM)”.
For `Cc1ccn(-c2cc(C(F)F)cc(NC3CCC(F)(F)CC3)n2)n1` [NSSy5839, N-(4,4-difluorocyclohexyl)-4-(difluoromethyl)-6-(3-methyl-1H-pyrazol-1-yl)pyridin-2-amine], the “SC100 (μM)” value was “++ (++ means 200 nM-1000 nM)”.
`Cc1ccn(-c2cc(C(C)(C)O)cc(NC3CCC(F)(F)CC3)n2)n1` [NSSy5846] was tested, and the “SC100 (μM)” value was “++ (++ means 200 nM-1000 nM)”.
In the case of `N#Cc1ccn(-c2nc(NC3CCC(F)(F)CC3)cc(N3CC4(COC4)C3)n2)n1` [NSSy5847], the “SC100 (μM)” value is reported as “+ (+ means >1 uM)”.
In the case of `N#CCc1ccn(-c2nc(NC3CCC(F)(F)CC3)cc(N3CC4(COC4)C3)n2)n1` [NSSy5848], the “SC100 (μM)” value is reported as “+ (+ means >1 uM)”.
`COC(=O)N1CC(Oc2cc(NC3CC=C(C)CC3)nc(-c3nc(C)cs3)n2)C1` (stereo not drawn) [NSSy5854, methyl 3-((6-((4-methylcyclohex-3-en-1-yl)amino)-2-(4-methylthiazol-2-yl)pyrimidin-4-yl)oxy)azetidine-1-carboxylate] was tested, and the “SC100 (μM)” value was “++ (++ means 200 nM-1000 nM)”.
With `COC(=O)N1CC(Oc2cc(NC3CCC(F)(F)CC3)nc(-c3nc(C)ns3)n2)C1` [NSSy5857] the “SC100 (μM)” value was “++ (++ means 200 nM-1000 nM)”.
For `COCc1cc(NC2CCC(F)(F)CC2)nc(-n2ccc(C)n2)c1` [NSSy5860], the “SC100 (μM)” value was “++ (++ means 200 nM-1000 nM)”.
For `Cc1ccn(-c2cc(COc3ncc(F)cn3)cc(NC3CCC(F)(F)CC3)n2)n1` [NSSy5861], the “SC100 (μM)” value was “++ (++ means 200 nM-1000 nM)”.
With `COC(=O)N1CC(Oc2nc(-c3nc(C)cs3)nc(NC3CCC(F)(F)CC3)c2Br)C1` [NSSy5868, methyl 3-((5-bromo-6-((4,4-difluorocyclohexyl)amino)-2-(4-methylthiazol-2-yl)pyrimidin-4-yl)oxy)azetidine-1-carboxylate] the “SC100 (μM)” value was “+++ (+++ means <200 nM)”.
`Cc1ccn(-c2nc(NC3CCC(F)(F)CC3)cc(OC3CC(O)C3)n2)n1` (stereo not drawn) [NSSy5879, 3-((6-((4,4-difluorocyclohexyl)amino)-2-(3-methyl-1H-pyrazol-1-yl)pyrimidin-4-yl)oxy)cyclobutan-1-ol] was tested, and the “SC100 (μM)” value was “++ (++ means 200 nM-1000 nM)”.
In the case of `COC(=O)N1CC(Oc2cc(NC3CCC(F)(F)CC3)nc(-c3nc(C)no3)n2)C1` [NSSy5887, methyl 3-((6-((4,4-difluorocyclohexyl)amino)-2-(3-methyl-1,2,4-oxadiazol-5-yl)pyrimidin-4-yl)oxy)azetidine-1-carboxylate], the “SC100 (μM)” value is reported as “+ (+ means >1 uM)”.
For `Cc1ccn(-c2nc(NC3CCC(F)(F)CC3)cc(OC3CC(F)(F)C3)n2)n1` [NSSy5893, 6-(3,3-difluorocyclobutoxy)-N-(4,4-difluorocyclohexyl)-2-(3-methyl-1H-pyrazol-1-yl)pyrimidin-4-amine], the “SC100 (μM)” value was “++ (++ means 200 nM-1000 nM)”.
With `Cc1ccn(-c2nc(NC3CCC(F)(F)CC3)cc(OC3CC(C)(O)C3)n2)n1` (stereo not drawn) [NSSy5902, 3-((6-((4,4-difluorocyclohexyl)amino)-2-(3-methyl-1H-pyrazol-1-yl)pyrimidin-4-yl)oxy)-1-methylcyclobutan-1-ol] the “SC100 (μM)” value was “++ (++ means 200 nM-1000 nM)”.
In the case of `COCc1cc(NC2CCC(F)(F)CC2)nc(-c2nc(C)cs2)c1` [NSSy5933, N-(4,4-difluorocyclohexyl)-4-(methoxymethyl)-6-(4-methylthiazol-2-yl)pyridin-2-amine], the “SC100 (μM)” value is reported as “++ (++ means 200 nM-1000 nM)”.
`COC(=O)N1CC(Oc2cc(NC3CCC(F)(F)CC3)cc(-n3ccc(C)n3)c2)C1` [NSSy5934, methyl 3-(3-((4,4-difluorocyclohexyl)amino)-5-(3-methyl-1H-pyrazol-1-yl)phenoxy)azetidine-1-carboxylate] was tested, and the “SC100 (μM)” value was “+ (+ means >1 uM)”.
With `Cc1noc(-c2cc(N3CCOCC3)cc(NC3CCC(F)(F)CC3)n2)n1` [NSSy5957] the “SC100 (μM)” value was “+ (+ means >1 uM)”.
With `COC(=O)N1CC(Oc2cc(NC3CCC(F)(F)CC3)nc(-c3nc(C)no3)c2)C1` [NSSy5959] the “SC100 (μM)” value was “+ (+ means >1 uM)”.
In the case of `COC(=O)N1CC(Oc2cc(NC3CCC(F)(F)CC3)cc(-c3nc(C)cs3)c2)C1` [NSSy5972, methyl 3-(3-((4,4-difluorocyclohexyl)amino)-5-(4-methylthiazol-2-yl)phenoxy) azetidine-1-carboxylate], the “SC100 (μM)” value is reported as “+ (+ means >1 uM)”.
With `COC(=O)N1CC(Oc2cc(NC3CC=C(C)CC3)nc(-c3nc(C)cs3)c2)C1` (stereo not drawn) [NSSy5980, methyl 3-((2-((4-methylcyclohex-3-en-1-yl)amino)-6-(4-methylthiazol-2-yl)pyridin-4-yl)oxy)azetidine-1-carboxylate] the “SC100 (μM)” value was “++ (++ means 200 nM-1000 nM)”.
In the case of `Cc1ccn(-c2cc(COc3ccc(F)cn3)cc(NC3CCC(F)(F)CC3)n2)n1` [NSSy5996], the “SC100 (μM)” value is reported as “++ (++ means 200 nM-1000 nM)”.
In the case of `Cc1csc(-c2nc(NC3CCC(F)(F)CC3)cc(OC3CCCn4nncc43)n2)n1` (stereo not drawn) [NSSy6007], the “SC100 (μM)” value is reported as “++ (++ means 200 nM-1000 nM)”.
`Cc1ccn(-c2cc(CN3CCCC3=O)cc(NC3CCC(F)(F)CC3)n2)n1` [NSSy6019, 1-((2-((4,4-difluorocyclohexyl)amino)-6-(3-methyl-1H-pyrazol-1-yl)pyridin-4-yl)methyl)pyrrolidin-2-one] was tested, and the “SC100 (μM)” value was “++ (++ means 200 nM-1000 nM)”.
`Cc1cc(CN2CCC(F)(F)CC2)cc(-c2nc(C)cs2)c1` [NSSy6044, 2-(3-((4,4-difluoropiperidin-1-yl)methyl)-5-methylphenyl)-4-methyl thiazole] was tested, and the “SC100 (μM)” value was “+ (+ means >1 uM)”.
